How the values were obtained:
[1] = system: patients with osteoarthritis of the knee; test: Double blind, randomized study in osteoarthritis of the knee: adherence and adverse events; type: in vivo, human; conditions: 90-day trial, 50 patients randomized to two groups
Protocol: (§1) After giving their written informed consent, patients were assessed at baseline for demographic and clinical characteristics. They were then randomized to receive either glucosamine sulphate or a combination of glucosamine sulphate, Boswellia serrata and curcuminoids twice-daily in a double blind manner for a total period of 90 days. Both the medications were identical in appearance and taste. Treatment of associated disease was allowed at the discretion of the physician. Patients were assessed at baseline and at the end of 90 days. Four separate 10 cm visual analogue scales (VAS) were used to measure pain in affected knee at rest, on movement and the patients overall assessment of swelling and morning stiffness. VAS was scored from 0 to 10, where 0 indicates no pain/swelling/stiffness and 10 is the worst pain/swelling/stiffness imaginable.
(§2) The Western Ontario McMaster Universities Osteoarthritis Index (WOMAC) (8) was used to evaluate pain, stiffness and physical function of the knee. The pain and stiffness subscales of the WOMAC have scores of 0-20 and 0-8 respectively, with 0 representing no pain or stiffness. […] Adherence to trial medication was recorded. Adverse events, patient withdrawals and concomitant illnesses were recorded in accordance with good clinical practice guidelines.

[2] = system: patients with osteoarthritis of the knee; test: Double blind, randomized study in osteoarthritis of the knee: VAS assessment of pain, stiffness and swelling; type: in vivo, human; conditions: twice-daily for 90 days, VAS scored 0 to 10, baseline vs end of 90 days
Description: The institutional ethics committee approved the study protocol. Patients were recruited from the orthopaedic outpatient clinic of a tertiary care hospital. Consecutive outpatients of either sex, aged between 40-65 years in ARA functional class I, II or III and radiologically diagnosed to have osteoarthritis of the knee were identified. Clinically pain or discomfort should have been experienced in the affected knee on most days for the previous 3 months. Of these, patients already undergone knee arthroplasty, taken glucosamine in the previous 3 months or any intraarticular injection within previous month, having renal and/or hepatic disease, diabetes mellitus or a disabling co-morbidity were excluded.
as §1, with “Four separate 10 cm visual analogue scales (VAS) were used to measure pain in affected knee at rest, on movement and the patients overall assessment of swelling and morning stiffness.” left out
as §2, with “knee.” for “knee. The pain and stiffness subscales of the WOMAC have scores of 0-20 and 0-8 respectively, with 0 representing no pain or stiffness.”
The primary outcome measure was the change in VAS and WOMAC assessment of pain and stiffness in the affected knee. Response to treatment was analysed on an intention to treat basis, and the continuous variables were tested for significance by the standard error of difference in means. Categorical data were expressed as percentages with their 95% confidence intervals (CI). […]

For `N[C@H]1C(O)O[C@H](CO)[C@@H](O)[C@@H]1O.O=S(=O)(O)O` (some centres unmarked) [glucosamine sulphate], the “Patients who reported headache” value [1] was 4 (16.0%) patients (%), the “Patients who reported increase in pain” value [1] was 3 (12.0%) patients (%) and the “Mean (95% CI) decrease in VAS score for morning stiffness” value [2] was 0.13. For the same compound, the “Mean (95% CI) decrease in VAS score for pain on use” value [2] was 0.27 and the “Mean (95% CI) decrease in VAS score for swelling” value [2] was 0.45.
